Here are results for one compound from article PMC11421850, “Identification of pharmacological inducers of a reversible hypometabolic state for whole organ preservation” (eLife, 2024).

The experiment concerns the target T1, delta opioid receptor (DOR) (Homo sapiens, UniProt P41143).
T1 construct: gene OPRD1
The experiment can be described thus: biochemical.

pIC50: −log10 of the molar value.

T1 sequence (P41143 whole entry): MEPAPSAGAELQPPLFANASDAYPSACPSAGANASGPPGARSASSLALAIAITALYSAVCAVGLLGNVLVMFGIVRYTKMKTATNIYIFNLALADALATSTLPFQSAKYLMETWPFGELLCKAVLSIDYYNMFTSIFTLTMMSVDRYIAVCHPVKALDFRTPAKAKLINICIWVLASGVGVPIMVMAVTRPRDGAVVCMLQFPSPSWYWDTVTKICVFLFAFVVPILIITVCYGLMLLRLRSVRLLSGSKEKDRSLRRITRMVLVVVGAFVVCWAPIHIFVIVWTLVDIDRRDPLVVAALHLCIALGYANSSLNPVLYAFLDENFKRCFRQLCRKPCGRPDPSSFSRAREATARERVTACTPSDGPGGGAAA

What is called pIC50 is −log10 of the IC50, conventionally taken in molar units. A lower pIC50 goes with a high IC50. The compound `CCN(CC)C(=O)c1ccc([C@H](c2cccc(OC)c2)N2C[C@@H](C)OC[C@@H]2C)cc1` [WB3] gave a negative-log IC50 (pIC50) of 5.46.
